# Measured values reported in patent US10202339B2, “Therapeutic compounds and compositions” (AGIOS PHARMACEUTICALS, INC., priority 2012, dated 2019).
# Target: IDH2 R140Q (Homo sapiens (Human), UniProt P48735, R140Q)
# Assay: IDH2 R140Q enzymatic cofactor depletion assay (diaphorase/resazurin)
# Assay type: biochemical
# Conditions: IDH2 R140Q enzyme, one hour preincubation with compound, one hour reaction; read-out: Enz R140Q
# Method in brief: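 Enzyme preincubated with compound 1 h at room temperature, then reaction started with 50 μM NADPH and 6.3 mM α-KG and run 1 h at room temperature. Remaining NADPH measured by diaphorase (36 μg/ml)/resazurin (60 μM) stop mix, fluorescence read at Ex544/Em590 after 1 min.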
# Chain of IDH2 R140Q (P48735 40-452 R140Q): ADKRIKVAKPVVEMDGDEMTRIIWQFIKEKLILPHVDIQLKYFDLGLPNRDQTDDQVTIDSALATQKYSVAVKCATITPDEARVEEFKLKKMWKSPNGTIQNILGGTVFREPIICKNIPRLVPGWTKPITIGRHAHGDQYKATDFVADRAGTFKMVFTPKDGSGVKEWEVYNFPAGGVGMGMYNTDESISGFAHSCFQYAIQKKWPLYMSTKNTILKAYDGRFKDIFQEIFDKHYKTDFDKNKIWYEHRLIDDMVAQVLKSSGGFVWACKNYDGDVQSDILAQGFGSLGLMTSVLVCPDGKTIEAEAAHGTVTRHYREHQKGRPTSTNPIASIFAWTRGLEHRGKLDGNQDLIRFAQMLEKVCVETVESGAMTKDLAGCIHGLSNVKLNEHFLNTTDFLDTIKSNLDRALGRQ
row,SMILES,IC50 [nM]
1,"O=C(Nc1cccc(C(F)(F)F)c1)Nc1cc(S(=O)(=O)NCC2CCCC2)ccc1-c1ccsc1 [Compound 129, N-(cyclopentylmethyl)-4-(thiophen-3-yl)-3-(3-(3-(trifluoromethyl)phenyl)ureido)benzenesulfonamide]",100 to 1000
2,"O=C(Nc1cccc(C(F)(F)F)c1)Nc1cc(S(=O)(=O)NCC(F)(F)F)ccc1-c1ccsc1 [Compound 130, 4-(thiophen-3-yl)-N-(2,2,2-trifluoroethyl)-3-(3-(3-(trifluoromethyl)phenyl)ureido)benzenesulfonamide]",100 to 1000
3,"O=C(Nc1cccc(C(F)(F)F)c1)Nc1cc(S(=O)(=O)N2CCOCC2)ccc1-c1ccsc1 [Compound 131, 1-(5-(morpholinosulfonyl)-2-(thiophen-3-yl)phenyl)-3-(3-(trifluoromethyl)phenyl)urea]",100 to 1000
4,"O=C(Nc1cccc(C(F)(F)F)c1)Nc1cc(S(=O)(=O)NC2CCOCC2)ccc1-c1ccsc1 [Compound 132, N-(tetrahydro-2H-pyran-4-yl)-4-(thiophen-3-yl)-3-(3-(3-(trifluoromethyl)phenyl)ureido)benzene sulfonamide]",100 to 1000
5,"O=C(Nc1cccc(C(F)(F)F)c1)Nc1cc(S(=O)(=O)NCC2CCOCC2)ccc1-c1ccsc1 [Compound 133, N-((tetrahydro-2H-pyran-4-yl)methyl)-4-(thiophen-3-yl)-3-(3-(3-(trifluoromethyl)phenyl)ureido)benzene sulfonamide]",100 to 1000
6,"O=C(Nc1cccc(C(F)(F)F)c1)Nc1cc(S(=O)(=O)NC2CCSCC2)ccc1-c1ccsc1 [Compound 134, N-(tetrahydro-2H-thiopyran-4-yl)-4-(thiophen-3-yl)-3-(3-(3-(trifluoromethyl)phenyl)ureido)benzene sulfonamide]",100 to 1000
7,"O=C(Nc1cccc(C(F)(F)F)c1)Nc1cc(S(=O)(=O)N2CCS(=O)(=O)CC2)ccc1-c1ccsc1 [Compound 135, 1-(5-((1,1-dioxidothiomorpholino)sulfonyl)-2-(thiophen-3-yl)phenyl)-3-(3-(trifluoromethyl)phenyl)urea]",100 to 1000
8,"O=C(Nc1cccc(C(F)(F)F)c1)Nc1cc(S(=O)(=O)NCc2ccccc2)ccc1-c1ccsc1 [Compound 136, N-benzyl-4-(thiophen-3-yl)-3-(3-(3-(trifluoromethyl)phenyl)ureido)benzenesulfonamide]",100 to 1000
9,O=C(Nc1cccc(C(F)(F)F)c1)Nc1cc(S(=O)(=O)N2CCCC2)ccc1-c1ccsc1 [Compound 141],1000 to 10000
10,O=C(Nc1cccc(C(F)(F)F)c1)Nc1cc(S(=O)(=O)Nc2ccccc2O)ccc1-c1ccsc1 [Compound 142],> 10000
11,CN(c1ccccc1)S(=O)(=O)c1ccc(-c2ccsc2)c(NC(=O)Nc2cccc(C(F)(F)F)c2)c1 [Compound 143],1000 to 10000
12,C[C@@H](NS(=O)(=O)c1ccc(-c2ccsc2)c(NC(=O)Nc2cccc(C(F)(F)F)c2)c1)c1ccccc1 [Compound 144],1000 to 10000
13,C[C@H](NS(=O)(=O)c1ccc(-c2ccsc2)c(NC(=O)Nc2cccc(C(F)(F)F)c2)c1)c1ccccc1 [Compound 145],1000 to 10000
14,"O=C(Nc1cccc(C(F)(F)F)c1)Nc1cc(S(=O)(=O)Nc2ccc(O)cc2)ccc1-c1ccsc1 [Compound 146, N-(4-hydroxyphenyl)-4-(thiophen-3-yl)-3-(3-(3-(trifluoromethyl)phenyl)ureido)benzenesulfonamide]",1000 to 10000
15,O=C(Nc1cccc(C(F)(F)F)c1)Nc1cc(S(=O)(=O)Nc2cccc(C(F)(F)F)c2)ccc1-c1ccsc1 [Compound 147],1000 to 10000
16,O=C(Nc1cccc(C(F)(F)F)c1)Nc1cc(S(=O)(=O)Nc2cc[nH]n2)ccc1-c1ccsc1 [Compound 148],1000 to 10000
17,O=C(Nc1cccc(C(F)(F)F)c1)Nc1cc(S(=O)(=O)Nc2ccccn2)ccc1-c1ccsc1 [Compound 149],1000 to 10000
18,O=C(Nc1cccc(C(F)(F)F)c1)Nc1cc(S(=O)(=O)Nc2cccnc2)ccc1-c1ccsc1 [Compound 150],1000 to 10000
19,O=C(Nc1ccc(F)cc1)Nc1cc(S(=O)(=O)NCC2CC2)ccc1C1=CCOCC1 [Compound 153],1000 to 10000
20,"O=C(Nc1cccc(C(F)(F)F)c1)Nc1cc(S(=O)(=O)NCC2CC2)ccc1C1=CCOCC1 [Compound 154, N-(cyclopropylmethyl)-4-(3,6-dihydro-2H-pyran-4-yl)-3-(3-(3-(trifluoromethyl)phenyl)ureido)benzene sulfonamide]",100 to 1000
21,"O=C(Nc1ccc(F)c(Cl)c1)Nc1cc(S(=O)(=O)NCC2CC2)ccc1C1=CCOCC1 [Compound 155, 3-(3-(3-chloro-4-fluorophenyl)ureido)-N-(cyclopropylmethyl)-4-(3,6-dihydro-2H-pyran-4-yl)benzene sulfonamide]",100 to 1000
22,"O=C(Nc1ccc(F)c(C(F)(F)F)c1)Nc1cc(S(=O)(=O)NCC2CC2)ccc1C1=CCOCC1 [Compound 156, N-(cyclopropylmethyl)-4-(3,6-dihydro-2H-pyran-4-yl)-3-(3-(4-fluoro-3-(trifluoromethyl)phenyl)ureido)benzenesulfonamide]",100 to 1000

# The next lines start with the values.
row,IC50 [nM],SMILES
1,100 to 1000,"O=C(Nc1cccc(C(F)(F)F)c1)Nc1cc(S(=O)(=O)NC2CCCC2)ccc1-c1ccsc1 [Compound 126, N-cyclopentyl-4-(thiophen-3-yl)-3-(3-(3-(trifluoromethyl)phenyl)ureido)benzenesulfonamide]"
2,100 to 1000,"O=C(Nc1cccc(C(F)(F)F)c1)Nc1cc(S(=O)(=O)NCC2CC2)ccc1-c1ccsc1 [Compound 127, N-(cyclopropylmethyl)-4-(thiophen-3-yl)-3-(3-(3-(trifluoromethyl)phenyl)ureido)benzenesulfonamide]"
3,100 to 1000,"O=C(Nc1cccc(C(F)(F)F)c1)Nc1cc(S(=O)(=O)NCC2CCC2)ccc1-c1ccsc1 [Compound 128, N-(cyclobutylmethyl)-4-(thiophen-3-yl)-3-(3-(3-(trifluoromethyl)phenyl)ureido)benzenesulfonamide]"
4,1000 to 10000,CN(C)S(=O)(=O)c1ccc(-c2ccsc2)c(NC(=O)Nc2cccc(C(F)(F)F)c2)c1 [Compound 137]
5,100 to 1000,"CONS(=O)(=O)c1ccc(-c2ccsc2)c(NC(=O)Nc2cccc(C(F)(F)F)c2)c1 [Compound 138, N-methoxy-4-(thiophen-3-yl)-3-(3-(3-(trifluoromethyl)phenyl)ureido)benzenesulfonamide]"
6,100 to 1000,"CCONS(=O)(=O)c1ccc(-c2ccsc2)c(NC(=O)Nc2cccc(C(F)(F)F)c2)c1 [Compound 139, N-ethoxy-4-(thiophen-3-yl)-3-(3-(3-(trifluoromethyl)phenyl)ureido)benzenesulfonamide]"
7,1000 to 10000,O=C(Nc1cccc(C(F)(F)F)c1)Nc1cc(S(=O)(=O)N2CCC2)ccc1-c1ccsc1 [Compound 140]
8,100 to 1000,"CC1(NS(=O)(=O)c2ccc(-c3ccsc3)c(NC(=O)Nc3cccc(C(F)(F)F)c3)c2)CC1 [Compound 151, N-(1-methylcyclopropyl)-4-(thiophen-3-yl)-3-(3-(3-(trifluoromethyl)phenyl)ureido)benzenesulfonamide]"
9,100 to 1000,"CC1CC1NS(=O)(=O)c1ccc(-c2ccsc2)c(NC(=O)Nc2cccc(C(F)(F)F)c2)c1 (stereo not shown) [Compound 152, N-(2-methylcyclopropyl)-4-(thiophen-3-yl)-3-(3-(3-(trifluoromethyl)phenyl)ureido)benzenesulfonamide]"
